In patent US20250388602A1 (Genase Therapeutics B.V., priority 2022, published 2025):
Read-outs that look alike come from different tables or passages of the source.

Assays:
in vitro [1] = settings: for HLM % remaining: % remaining at 60 min, 1 μM; for half-life at 1 μM: both, human
Method: Human Liver Microsomal metabolic stability: The microsomal metabolic stability assay utilized pooled human liver microsomes (mixed gender, BD Gentest), with supplemented cofactors NADPH and UDPGA (Solarbio S&T Co., LTD). Two separate experiments were performed as follows: • a) With cofactors (NADPH & UDPGA): 25 μL of 10 mM NADPH and 25 μL of 20 mM UDPGA were added to 197.5 μL of reaction solution (phosphate buffer (final concentration in assay 100 mM), MgCl2 (final concentration in assay (5 mM)), alamethacin (final concentration in assay 0.025 mg/mL) and microsomes (final concentration in assay 0.5 mg/mL). • b) Without cofactors (NADPH & UDPGA): 50 μL of H2O was added to 197.5 μL of reaction solution.
The mixture was pre-warmed at 37° C. for 10 minutes. The reaction was started with the addition of 2.5 μL of 100 μM control compound or test compound solutions. Diclofenac was used as positive control in this study. The final concentration of control compound and test compounds was 1 μM. Aliquots of 25 μL were taken from the reaction solution at 0.5, 5, 15, 30 and 60 minutes. The reaction was stopped by the addition of 5 volumes of cold acetonitrile containing internal standards. Samples were centrifuged at 3,220 g for 40 minutes. An aliquot of 100 μL of the supernatant was mixed with 100 μL of ultra-pure H2O and then used for LC-MS/MS analysis. Peak areas were determined from extracted ion chromatograms. Percent parent remaining was calculated from the area ratio of test compound. The slope value was determined by linear regression of the natural logarithm of percent parent remaining versus incubation time curve.
(§1) Peak areas were determined from extracted ion chromatograms to determine the in vitro half-life (t½) of parent compound by regression analysis of the percent parent disappearance vs. time curve. The in vitro half-life (in vitro t½) was determined from the slope value (in vitro t½=−0.693/k). All calculations were carried out using Microsoft Excel.

in vitro [2] = settings: for hHEPs % remaining: % remaining at 120 min, 1 μM; for half-life at 1 μM: human, hepatocytes
Method: Human Hepatocyte metabolic stability: Human hepatocytes (X008000, BioIVT) were freshly thawed prior to the incubations with test compound. Hepatocytes were transferred to 50 mL conical tubes and centrifuged 10 min at 100 g. Thawing medium was removed and replaced by preheated (37° C.) incubation medium (William's E Medium supplemented with GlutaMAX), to yield a hepatocyte density ˜1.5×10^6 cells/mL. Cell viability was determined using AO/PI staining and hepatocytes were diluted using incubation medium to a working density of 0.5×10^6 viable cells/mL. 198 μL of hepatocytes were added into each well of a 96-well plate and placed in the incubator to allow the hepatocytes to warm for 10 minutes. 2 μL test compound or positive control was placed into respective wells of the 96-well plate (final concentration test compound 1 μM) to start the reaction. The plate was returned to the incubator and 25 μL aliquots of the well contents were removed at time points of 0, 15, 30, 60, 90 and 120 minutes. The aliquots were mixed with 6 volumes (150 μL) of acetonitrile containing internal standards (100 nM alprazolam, 200 nM caffeine, and 100 nM tolbutamide) to terminate the reaction. The plate was centrifuged for 20 minutes at 3,200 g. Aliquots of 150 μL of the supernatants were used for LC/MS/MS analysis. All incubations were performed in duplicate.
as §1

MOLM-13 cells = assay: MOLM-13 cell viability (Assay B), Cell Titer-Glo; assay type: cell-based; settings: Homo sapiens, read-out: IC50 MOLM13 inhibition activity
Method: MOLM-13 cells (an acute myeloid leukemia cell line) were plated in RPMI supplied with 10% FBS and 1% Pen/Strep in 384-well plates at 1,000 cells per well on day 0. On day 1, treatment of the cells with compound (concentration range 10E-5 and 6E-12 M) was initiated in the presence or absence of 100 μM uridine. After 72 hours incubation of the cells with or without test compound, the number of viable cells per well was assessed by Cell Titer-Glo Luminescent Cell Viability Assay (Promega, Madison, WI, USA). […] Each condition was tested in duplicate and the potency of test compounds was determined from two independent experiments.

recombinant human DHODH = recombinant human DHODH (Homo sapiens (Human), UniProt Q02127); assay: DHODH enzyme assay (Assay A), DCIP absorbance; assay type: biochemical
Chain of recombinant human DHODH (Q02127 whole entry): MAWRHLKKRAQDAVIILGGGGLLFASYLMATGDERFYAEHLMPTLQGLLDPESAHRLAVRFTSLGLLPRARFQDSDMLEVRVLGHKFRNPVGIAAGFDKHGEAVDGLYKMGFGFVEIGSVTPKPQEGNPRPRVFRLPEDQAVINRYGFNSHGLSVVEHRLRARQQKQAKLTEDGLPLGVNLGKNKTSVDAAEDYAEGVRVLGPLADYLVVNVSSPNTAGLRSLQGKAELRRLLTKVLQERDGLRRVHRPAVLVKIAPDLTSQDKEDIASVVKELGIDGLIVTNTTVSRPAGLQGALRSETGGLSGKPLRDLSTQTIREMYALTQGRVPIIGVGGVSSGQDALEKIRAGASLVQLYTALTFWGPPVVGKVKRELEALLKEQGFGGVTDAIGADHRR
Method: Inhibition of human dihydroorotate dehydrogenase (DHODH) by example compounds as described herein was determined using one of two assays as described below.
DHODH enzyme assays were performed with 6 nM recombinant human DHODH (purified essentially as described by Walse et al., Biochemistry, 47, 8929-8936 (2008)). The reaction mixture consisted of 1 mM DL-dihydroorotic acid (#D7003, Sigma-Aldrich), 100 μM 3,4-dimethoxy-5-methyl-p-benzoquinone (#D9150, Sigma-Aldrich), and 100 μM 2,6-dichlorophenolindophenol sodium salt (DCIP) (#D1878, Sigma-Aldrich) in enzyme buffer (50 mM Tris-HCl pH 8.0, 0.1% Triton X-100, 150 mM KCl). A stock solution of 20 mM DCIP was prepared in enzyme buffer and filtered through Whatman paper just before use. Reactions were performed in a total volume of 100 μL, consisting of 1 μL of compound, 49 μL of enzyme and 50 μL of reaction mixture. Loss in absorbance by chromogen DCIP was measured at 595 nm following a 70 minute incubation at 32° C.

[3] = MOLM-13, 72 hours, bins ≥10 nM-<100 nM and <10 nM
[4] = bins ≥10 nM-<100 nM and <10 nM, read-out: IC50 DHODH inhibition activity

With `O=C(N[C@H]1COCc2c1cnn2-c1c(F)cccc1Cl)c1ncn2c1CCCC2` (single isomer, unassigned) [Ex-10] the HLM % remaining (in vitro [1]) was 100%, the half-life at 1 μM (in vitro [1]; pooled liver microsomes) was > 6.08 h and the hHEPs % remaining (in vitro [2]) was 100%. The half-life at 1 μM (in vitro [2]) was > 10 h.
With `Cc1cccc(Cl)c1-n1ncc2c1COC[C@H]2NC(=O)c1ncc2n1CCCC2` [Ex-36, (S)—N-(1-(2-chloro-6-methylphenyl)-1,4,5,7-tetrahydropyrano[3,4-c]pyrazol-4-yl)-5,6,7,8-tetrahydroimidazo[1,5-a]pyridine-3-carboxamide] the IC50 (MOLM-13 cells; [3]) was < 10 nM and the IC50 (recombinant human DHODH; [4]) was < 10 nM.
For `Cc1cccc(Cl)c1-n1ncc2c1COC[C@H]2NC(=O)c1n[nH]c2c1CCCC2` [Ex-37, (S)—N-(1-(2-chloro-6-methylphenyl)-1,4,5,7-tetrahydropyrano[3,4-c]pyrazol-4-yl)-4,5,6,7-tetrahydro-1H-indazole-3-carboxamide], the IC50 (MOLM-13 cells; [3]) was 10 to 100 nM and the IC50 (recombinant human DHODH; [4]) was 10 to 100 nM.
In the case of `Cc1cccc(Cl)c1-n1ncc2c1COC[C@H]2NC(=O)c1noc2c1CCCC2` [Ex-38, (S)—N-(1-(2-chloro-6-methylphenyl)-1,4,5,7-tetrahydropyrano[3,4-c]pyrazol-4-yl)-4,5,6,7-tetrahydrobenzo[d]isoxazole-3-carboxamide], the IC50 (MOLM-13 cells; [3]) is reported as < 10 nM and the IC50 (recombinant human DHODH; [4]) is reported as < 10 nM.
Compound `CCc1c(C(=O)N[C@@H]2COCc3c2cnn3-c2c(C)cccc2Cl)n[nH]c1C` [Ex-39, (S)—N-(1-(2-chloro-6-methylphenyl)-1,4,5,7-tetrahydropyrano[3,4-c]pyrazol-4-yl)-4-ethyl-5-methyl-1H-pyrazole-3-carboxamide] has an IC50 (MOLM-13 cells; MOLM-13, 72 h) of 10 to 100 nM and an IC50 (recombinant human DHODH; [4]) of 10 to 100 nM.
Compound `O=C(N[C@@H]1COCc2c1cnn2-c1ccccc1F)c1n[nH]c2c1CCCC2` [Ex-42, (S)—N-(1-(2-fluorophenyl)-1,4,5,7-tetrahydropyrano[3,4-c]pyrazol-4-yl)-4,5,6,7-tetrahydro-1H-indazole-3-carboxamide] has an HLM % remaining (in vitro [1]) of 85%, a half-life at 1 μM (in vitro [1]; pooled liver microsomes) of 3.93 h and a hHEPs % remaining (in vitro [2]) of 76%. The half-life at 1 μM (in vitro [2]) was 5.43 h.
For `O=C(N[C@@H]1COCc2c1cnn2-c1ccccc1F)c1noc2c1CCCC2` [Ex-43, (S)—N-(1-(2-fluorophenyl)-1,4,5,7-tetrahydropyrano[3,4-c]pyrazol-4-yl)-4,5,6,7-tetrahydrobenzo[d]isoxazole-3-carboxamide], the HLM % remaining (in vitro [1]) was 92%, the half-life at 1 μM (in vitro [1]; pooled liver microsomes) was > 6.08 h and the hHEPs % remaining (in vitro [2]) was 93%. The half-life at 1 μM (in vitro [2]) was > 10 h.
With `CCc1c(C(=O)N[C@@H]2COCc3c2cnn3-c2ccccc2F)n[nH]c1C` [Ex-44, (S)-4-ethyl-N-(1-(2-fluorophenyl)-1,4,5,7-tetrahydropyrano[3,4-c]pyrazol-4-yl)-5-methyl-1H-pyrazole-3-carboxamide] the HLM % remaining (in vitro [1]) was 92%, the half-life at 1 μM (in vitro [1]; pooled human liver microsomes) was > 6.08 h and the half-life at 1 μM (in vitro [2]) was 9.35 h.
In the case of `O=C(N[C@@H]1COCc2c1cnn2-c1cccc(C(F)(F)F)c1Cl)c1ncn2c1CCCC2` [Ex-50, (S)—N-(1-(2-chloro-3-(trifluoromethyl)phenyl)-1,4,5,7-tetrahydropyrano[3,4-c]pyrazol-4-yl)-5,6,7,8-tetrahydroimidazo[1,5-a]pyridine-1-carboxamide], the IC50 (MOLM-13 cells; [3]) is reported as < 10 nM and the IC50 (recombinant human DHODH; [4]) is reported as 10 to 100 nM.
`COc1cccc(Cl)c1-n1ncc2c1COC[C@H]2NC(=O)c1ncn2c1CCCC2` [Ex-60, (S)—N-(1-(2-chloro-6-methoxyphenyl)-1,4,5,7-tetrahydropyrano[3,4-c]pyrazol-4-yl)-5,6,7,8-tetrahydroimidazo[1,5-a]pyridine-1-carboxamide] gave an IC50 (MOLM-13 cells; [3]) of 10 to 100 nM and an IC50 (recombinant human DHODH; [4]) of 10 to 100 nM.
Work on `O=C(N[C@@H]1COCc2c1cnn2-c1cccc(O)c1Cl)c1ncn2c1CCCC2` [Ex-62, (S)—N-(1-(2-chloro-3-hydroxyphenyl)-1,4,5,7-tetrahydropyrano[3,4-c]pyrazol-4-yl)-5,6,7,8-tetrahydroimidazo[1,5-a]pyridine-1-carboxamide] yielded an IC50 (MOLM-13 cells; MOLM-13, 72 h) of 10 to 100 nM and an IC50 (recombinant human DHODH) of 10 to 100 nM.
Compound `CN(C)C(=O)COc1cccc(-n2ncc3c2COC[C@H]3NC(=O)c2ncn3c2CCCC3)c1Cl` [Ex-64, (S)—N-(1-(2-chloro-3-(2-(dimethylamino)-2-oxoethoxy)phenyl)-1,4,5,7-tetrahydropyrano[3,4-c]pyrazol-4-yl)-5,6,7,8-tetrahydroimidazo[1,5-a]pyridine-1-carboxamide] has an IC50 (MOLM-13 cells; [3]) of 10 to 100 nM and an IC50 (recombinant human DHODH) of 10 to 100 nM.
With `COCCOc1cccc(-n2ncc3c2COC[C@H]3NC(=O)c2ncn3c2CCCC3)c1Cl` [Ex-67, (S)—N-(1-(2-chloro-3-(2-methoxyethoxy)phenyl)-1,4,5,7-tetrahydropyrano[3,4-c]pyrazol-4-yl)-5,6,7,8-tetrahydroimidazo[1,5-a]pyridine-1-carboxamide] the IC50 (MOLM-13 cells; [3]) was < 10 nM and the IC50 (recombinant human DHODH; read-out: IC50 DHODH inhibition activity) was < 10 nM.
With `O=C(N[C@@H]1COCc2c1cnn2-c1cccc(OCCO)c1Cl)c1ncn2c1CCCC2` [Ex-68, (S)—N-(1-(2-chloro-3-(2-hydroxyethoxy)phenyl)-1,4,5,7-tetrahydropyrano[3,4-c]pyrazol-4-yl)-5,6,7,8-tetrahydroimidazo[1,5-a]pyridine-1-carboxamide] the IC50 (MOLM-13 cells; MOLM-13, 72 h) was 10 to 100 nM and the IC50 (recombinant human DHODH) was 10 to 100 nM.
In the case of `O=C(N[C@@H]1COCc2c1cnn2-c1cccc(C(=O)N2CCCC2)c1Cl)c1ncn2c1CCCC2` [Ex-71, (S)—N-(1-(2-chloro-3-(pyrrolidine-1-carbonyl)phenyl)-1,4,5,7-tetrahydropyrano[3,4-c]pyrazol-4-yl)-5,6,7,8-tetrahydroimidazo[1,5-a]pyridine-1-carboxamide], the IC50 (MOLM-13 cells; [3]) is reported as 10 to 100 nM and the IC50 (recombinant human DHODH; [4]) is reported as 10 to 100 nM.
For `O=C(N[C@@H]1COCc2c1cnn2-c1cccc(C(=O)N2CCCCC2)c1Cl)c1ncn2c1CCCC2` [Ex-72, (S)—N-(1-(2-chloro-3-(piperidine-1-carbonyl)phenyl)-1,4,5,7-tetrahydropyrano[3,4-c]pyrazol-4-yl)-5,6,7,8-tetrahydroimidazo[1,5-a]pyridine-1-carboxamide], the IC50 (MOLM-13 cells; [3]) was < 10 nM and the IC50 (recombinant human DHODH; [4]) was < 10 nM.
In the case of `O=C(N[C@@H]1COCc2c1cnn2-c1cccc(C(=O)N2CCOCC2)c1Cl)c1ncn2c1CCCC2` [Ex-73, (S)—N-(1-(2-chloro-3-(morpholine-4-carbonyl)phenyl)-1,4,5,7-tetrahydropyrano[3,4-c]pyrazol-4-yl)-5,6,7,8-tetrahydroimidazo[1,5-a]pyridine-1-carboxamide], the IC50 (MOLM-13 cells; [3]) is reported as 10 to 100 nM and the IC50 (recombinant human DHODH) is reported as 10 to 100 nM.
In the case of `CCN(CC)C(=O)c1cccc(-n2ncc3c2COC[C@H]3NC(=O)c2ncn3c2CCCC3)c1Cl` [Ex-74, (S)—N-(1-(2-chloro-3-(diethylcarbamoyl)phenyl)-1,4,5,7-tetrahydropyrano[3,4-c]pyrazol-4-yl)-5,6,7,8-tetrahydroimidazo[1,5-a]pyridine-1-carboxamide], the IC50 (MOLM-13 cells; [3]) is reported as 10 to 100 nM and the IC50 (recombinant human DHODH; [4]) is reported as 10 to 100 nM.
